From ChEMBL document CHEMBL4004802, “α-Glucosidase Inhibitors from Malbranchea flavorosea” (J Nat Prod, 2017)
Active and inactive are the calls of the source. No cut-off for these calls is given here.

What was measured:
[1] = Inhibition of Saccharomyces cerevisiae alpha-glucosidase using p-nitrophenyl-alpha-D-glucopyranoside as substrate after 30 mins
Mus musculus [2] = assay: Antihyperglycemic activity in nicotinamide/streptozotocin-induced ICR mouse hyperglycemic model assessed as decrease in postprandial blood glucose levels at 5 mg/kg administered 30 mins followed by oral sucrose challenge measured after 30 to 120 mins by OSTT; assay type: functional, organism-based
Mus musculus [3] = assay: Antihyperglycemic activity in ICR mouse assessed as decrease in postprandial blood glucose levels at 5 mg/kg administered 30 mins followed by oral sucrose challenge measured after 30 to 120 mins by OSTT; assay type: functional, organism-based
Mus musculus [4] = assay: Antihyperglycemic activity in nicotinamide/streptozotocin-induced ICR mouse hyperglycemic model assessed as decrease in postprandial blood glucose levels at 3.2 to 31.6 mg/kg, po administered 30 mins followed by oral sucrose challenge measured after 30 to 120 mins by OSTT; assay type: functional, organism-based
Mus musculus [5] = assay: Antihyperglycemic activity in ICR mouse assessed as decrease in postprandial blood glucose levels at 3.2 to 31.6 mg/kg, po administered 30 mins followed by oral sucrose challenge measured after 30 to 120 mins by OSTT; assay type: functional, organism-based

Row | IC50 [1] [mM] | SMILES | Activity (Mus musculus [2]) | Activity (Mus musculus [3]) | Activity (Mus musculus [4]) | Activity (Mus musculus [5])
1 | 2.25 | C[C@H](O)[C@H](O)C[C@H]1OCc2c(O)cccc21 | – | – | – | –
2 | 1.07 | O=C1C=Cc2cccc(O)c2CO1 | – | – | – | –
3 | 0.5 | C[C@H]1O[C@H](O[C@H]2[C@H](O)[C@@H](O)[C@@H](O[C@H]3[C@H](O)[C@@H](O)C(O)O[C@@H]3CO)O[C@@H]2CO)[C@H](O)[C@@H](O)[C@@H]1N[C@H]1C=C(CO)[C@@H](O)[C@H](O)[C@H]1O (stereo partly drawn) [ACARBOSE] | Active | Active | – | –
4 | 1.25 | C=C1OC(=O)[C@]2([C@H](C)C=CC(=O)[C@@H]2O)[C@H]1O [MASSARIGENIN C] | – | – | Active | Active
